This is an account of results in the supplement of paper PMC11208160.

The nature of this data set: recombinant barcode read abundance after kanamycin selection (control-corrected) (log10(CPM+1)); higher = more efficient recombination; sequences stand for … in AGTGCAGAGAAAATCGGCCAGTTTTCTCTGCCTGCAGTCCGCATGCCGT…AGATTTATGCAGCGGACTGCCTTTCTCCCAAAGTGATAAACCGGACAGTATCATGGACCGGTTTTCCCGGTAATCCGTATTTGCAAGGTTGGTTTCACT; site = the 11-nt target. The method in brief: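 Pooled E. coli screen pairing targets with IS621 bridge RNA target-binding loops. Each oligo (promoter, target, barcode, J23119-driven first 104 bridge RNA bases) was Gibson-cloned into a vector with the remaining 73 bp and T7-inducible recombinase, then co-electroporated with a donor plasmid. Two replicates each were plated on chloramphenicol/ampicillin LB agar (control) or chloramphenicol/ampicillin/kanamycin with 0.1 mM IPTG. Recombination efficiency is recombinant-junction barcode counts as CPM, averaged, control-corrected, reported as log10(CPM+1).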
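Also: IS621 recombinase and bridge RNA in Escherichia coli cells.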

As to “CTCGGATCTTGGGTTCTAACCTGTTGCCT (site CTCGGATCTAG)”, the “recombinant barcode read abundance (log10)” value worked out at 1.3.
Regarding “CTCGGATCTTGGGTTCTAACCTGTTGCTA (site CTCGGATCTAA)”, the “recombinant barcode read abundance (log10)” value worked out at 0.135.
The result for “CTCGGATCTTGGGTTCTAACCTGTTGCTA (site CTCGGATCTCA)” reads 0.15; that for “CTCGGATCTTGGGTTCTAACCTGTTGCTA (site CTCGGATCTGA)”, 0.0177; that for “CTCGGATCTTGGGTTCTAACCTGTTGCTA (site CTCGGATCTTA)”, 0.67.
Regarding “CTCGGATCTTGGGTTCTAACCTGTTGCTC (site CTCGGATCTAA)”, the “recombinant barcode read abundance (log10)” value worked out at 0.
In the case of “CTCGGATCTTGGGTTCTAACCTGTTGCTC (site CTCGGATCTCA)”, the “recombinant barcode read abundance (log10)” value is 0.0519.
As to “CTCGGATCTTGGGTTCTAACCTGTTGCTC (site CTCGGATCTGA)”, the “recombinant barcode read abundance (log10)” value was 0.991.
The result for “CTCGGATCTTGGGTTCTAACCTGTTGCTC (site CTCGGATCTTA)” reads 0.138; that for “CTCGGATCTTGGGTTCTAACCTGTTGCTG (site CTCGGATCTAA)”, 0.296; that for “CTCGGATCTTGGGTTCTAACCTGTTGCTG (site CTCGGATCTCA)”, 1.08.
The result for “CTCGGATCTTGGGTTCTAACCTGTTGCTG (site CTCGGATCTGA)” reads 0; that for “CTCGGATCTTGGGTTCTAACCTGTTGCTG (site CTCGGATCTTA)”, 0.133; that for “CTCGTACCTTGGGTTCTAACCTGTTGCGG (site CTCGTACCTCC)”, 2.52.
In the case of “CTCGTACCTTGGGTTCTAACCTGTTGCGG (site CTCGTAGCTCC)”, the “recombinant barcode read abundance (log10)” value worked out at 0.0696.
As for “CTCGTAGCTTGGGTTCTAACCTGTTGCCT (site AGTAGTTCTCT)”, the figure is 0.223.
As for “CTCGTAGCTTGGGTTCTAACCTGTTGCCT (site CTCGTAGCTAG)”, the figure is 0.651; as for “CTCGTAGCTTGGGTTCTAACCTGTTGCGG (site CTCGTACCTCC)”, 0.0414; as for “CTCGTAGCTTGGGTTCTAACCTGTTGCGG (site CTCGTAGCTCC)”, 1.23.
Take “CTCGTCACTTGGGTTCTAACCTGTTGCCT (site CTCGTAACTAG)”: the “recombinant barcode read abundance (log10)” value amounted to 0.106.
As to “CTCGTCACTTGGGTTCTAACCTGTTGCCT (site CTCGTCACTAG)”, the “recombinant barcode read abundance (log10)” value worked out at 1.91.
The result for “CTCGTCACTTGGGTTCTAACCTGTTGCCT (site CTCGTGACTAG)” reads 0.0882; that for “CTCGTCACTTGGGTTCTAACCTGTTGCCT (site CTCGTTACTAG)”, 0.0923.
As for “CTCGTGACTTGGGTTCTAACCTGTTGCCT (site CTCGTAACTAG)”, the figure is 0.682; as for “CTCGTGACTTGGGTTCTAACCTGTTGCCT (site CTCGTCACTAG)”, 0.
On to “CTCGTGACTTGGGTTCTAACCTGTTGCCT (site CTCGTGACTAG)”, for which the “recombinant barcode read abundance (log10)” value was 1.13.
As for “CTCGTGACTTGGGTTCTAACCTGTTGCCT (site CTCGTTACTAG)”, the “recombinant barcode read abundance (log10)” value was determined as 0.335.
The result for “CTCTAAACTTGGGTTCTAACCTGTTGCCA (site CTCTAAACTTG)” reads 0.106; that for “CTCTAAACTTGGGTTCTAACCTGTTGCCA (site CTCTACACTTG)”, 0.671.
The result for “CTCTAAACTTGGGTTCTAACCTGTTGCCA (site CTCTAGACTTG)” reads 0.108; that for “CTCTAAACTTGGGTTCTAACCTGTTGCCA (site CTCTATACTTG)”, 0.0391; that for “CTCTAAACTTGGGTTCTAACCTGTTGCGA (site CTCTAAACTTC)”, 0.919.
As for “CTCTAAACTTGGGTTCTAACCTGTTGCGA (site CTCTCAGCTTC)”, the “recombinant barcode read abundance (log10)” value came out at 0.0639.
For the sequence “CTCTAACCTTGGGTTCTAACCTGTTGCGT (site CTCTAACCTAC)”, the “recombinant barcode read abundance (log10)” value is 1.45.
In the case of “CTCTAACCTTGGGTTCTAACCTGTTGCGT (site CTCTACCCTAC)”, the “recombinant barcode read abundance (log10)” value is 0.0519.
“CTCTAACCTTGGGTTCTAACCTGTTGCGT (site CTCTAGCCTAC)”: the “recombinant barcode read abundance (log10)” value stood at 0.413.
For “CTCTAACCTTGGGTTCTAACCTGTTGCGT (site CTCTATCCTAC)”, the “recombinant barcode read abundance (log10)” value was 0.0249.
As for “CTCTAGACTTGGGTTCTAACCTGTTGCCT (site CTATAGACTTG)”, the “recombinant barcode read abundance (log10)” value was found to be 0.00655.
Turning to “CTCTAGACTTGGGTTCTAACCTGTTGCCT (site CTCTAGACTAG)”, the “recombinant barcode read abundance (log10)” value is 0.0941.
On to “CTCTAGCCTTGGGTTCTAACCTGTTGCAT (site CTCTAGCCTAT)”, for which the “recombinant barcode read abundance (log10)” value came to 0.505.
Regarding “CTCTAGCCTTGGGTTCTAACCTGTTGCAT (site GTCCAGCCTAT)”, the “recombinant barcode read abundance (log10)” value stood at 0.
Turning to “CTCTAGTCTTGGGTTCTAACCTGTTGCTT (site CTCTAGTCTAA)”, the “recombinant barcode read abundance (log10)” value is 0.748.
For the sequence “CTCTAGTCTTGGGTTCTAACCTGTTGCTT (site CTCTAGTCTAC)”, the “recombinant barcode read abundance (log10)” value was 0.518.
For the sequence “CTCTAGTCTTGGGTTCTAACCTGTTGCTT (site CTCTAGTCTAG)”, the “recombinant barcode read abundance (log10)” value was 0.377.
As for “CTCTAGTCTTGGGTTCTAACCTGTTGCTT (site CTCTAGTCTAT)”, the figure is 0.755.
Turning to “CTCTCCTCTTGGGTTCTAACCTGTTGCCT (site CTCTCCGCTAG)”, the “recombinant barcode read abundance (log10)” value came to 0.502.
The result for “CTCTCCTCTTGGGTTCTAACCTGTTGCCT (site CTCTCCTCTAG)” reads 1.28.
The result for “CTCTCGTCTTGGGTTCTAACCTGTTGCTT (site CTCTCGTCTAA)” reads 0.2; that for “CTCTCGTCTTGGGTTCTAACCTGTTGCTT (site CTCTCGTCTAC)”, 0.517; that for “CTCTCGTCTTGGGTTCTAACCTGTTGCTT (site CTCTCGTCTAG)”, 0.107.
The result for “CTCTCGTCTTGGGTTCTAACCTGTTGCTT (site CTCTCGTCTAT)” reads 0.091; that for “CTCTGTCCTTGGGTTCTAACCTGTTGCCA (site CTCTGTCCTTA)”, 0.0433; that for “CTCTGTCCTTGGGTTCTAACCTGTTGCCA (site CTCTGTCCTTG)”, 0.545.
Take “CTCTTAACTTGGGTTCTAACCTGTTGCGG (site AAGCATGCTTA)”: the “recombinant barcode read abundance (log10)” value was determined as 0.113.
Turning to “CTCTTAACTTGGGTTCTAACCTGTTGCGG (site CTCTTAACTCC)”, the “recombinant barcode read abundance (log10)” value is 0.536.
Turning to “CTCTTAGCTTGGGTTCTAACCTGTTGCAA (site CTCTTAACTTA)”, the “recombinant barcode read abundance (log10)” value was 0.0112.
As to “CTCTTAGCTTGGGTTCTAACCTGTTGCAA (site CTCTTAGCTTT)”, the “recombinant barcode read abundance (log10)” value came to 0.0457.
The result for “CTCTTCACTTGGGTTCTAACCTGTTGCCG (site CTCTTCACTCG)” reads 0.998; that for “CTCTTCACTTGGGTTCTAACCTGTTGCCG (site CTCTTCGCTAG)”, 0.0289.
